Assay results taken from PubChem BioAssay AID2060897 (Molecular Pharmacology Branch, DTP, NCI, 2025).
Values joined by “and” are separate entries in the source; they are usually repeats but may differ in a detail not shown here. Identical values can stand only once.

System: 966289-007-R4-J1-PDC complex spheroid viability
Experiment: Anticancer human tumor 966289-007-R4-J1-PDC patient-derived pancreatic adenocarcinoma cell line growth inhibition [RAS]
Details: for viability, T/C: stronger effect = lower value
Source text: RAS pathway inhibitors in Combinations in Complex Spheroids
A high-throughput screen of multi-cell type tumor spheroids was designed to identify active combinations of RAS pathway inhibitors and targeted small molecules. Complex spheroids include a stromal component modeled by human endothelial cells (HUVEC) and fibroblasts modeled by human mesenchymal stem cells (MSCs). The concentration ranges selected for each drug and investigational agent were based upon clinically achievable concentrations if the clinical Cmax of the agent was known.
Compounds. The drugs and investigational agents: abemaciclib (NSC768073), cobimetinib (NSC768068), divarasib (GDC6063, NSC841802), docetaxel (NSC628503), GDC-1971 (RLY-1971, NSC841576), gemcitabine (NSC613327), inavolisib (NSC800729), ipatasertib (NSC767898), KB-0742 (NSC834161), MRTX-1133 (NSC836407), osimertinib (NSC779217), RMC-4630 (NSC839698), RMC-6236 (NSC851965), RMC-6291 (NSC852671), Ro-3306 (NSC812927), sapanisertib (NSC764658), SN-38 (NSC673596), staurosporine (NSC755774), SY5609 (NSC837396), and tovorafenib (DAY101, NSC766906), were obtained from the National Cancer Institute (NCI) Developmental Therapeutics Program Chemical Repository. The FDA-approved anticancer drug set is available from the NCI Developmental Therapeutics Program. […] The stock solutions were prepared in dimethyl sulfoxide (DMSO, Sigma-Aldrich, St. Louis, MO, cat. D2650) at 800-fold the tested concentration and stored at -70 degrees C prior to their use. All drugs and investigational agents were tested over a range starting from a high concentration at or near the clinical Cmax and decreasing in half-log increments. If the clinical Cmax for an agent had not been determined, the highest concentration tested was 10 microM.
Cell Culture. All cells were maintained in an incubator at 37 degrees C and 5% CO2 with 95% humidity. The PDC lines were cultured according to standard operating procedures established by the NCI PDMR. All PDCs were thawed and cultured in Matrigel-coated flasks prepared with a working solution of 1X Ham's F-12 nutrient mix, without supplementation (Invitrogen, Waltham, MA, cat. 11765054), 100 U/mL penicillin-streptomycin (Invitrogen, cat. 15140122), and 2.5% Matrigel (Corning Inc., Corning, NY, cat. 354248) for the first three passages. The 362531-283-R-J2-PDC and 782815-120-R-J1-PDC lines were cultured in 6C/Colon 1B media, which includes advanced DMEM/F-12 (Thermo Fisher Scientific, cat. 12634028), 10 mM HEPES (Thermo Fisher Scientific, cat. 15630080), 1X GlutaMAX supplement (Thermo Fisher Scientific, cat. 35050061), 0.1 mg/mL primocin (InvivoGen, San Diego, CA, cat. ant-pm-2), 10% defined fetal bovine serum, heat inactivated (HyClone Laboratories Inc., Logan, UT, cat. SH30070.03HI), 50% L-WRN conditioned media (ATCC, cat. CRL-3276), 1.25 mM N-Acetyl-L-cysteine (Sigma-Aldrich, cat. A9165), 10 mM nicotinamide (Sigma-Aldrich, cat. N0636), 1X B-27 supplement (Thermo Fisher Scientific, cat. 17504044), 1X N-2 supplement (Thermo Fisher Scientific, cat. 17502048), 50 ng/mL human EGF (Thermo Fisher Scientific, cat. PHG0311), and 10 microM Y-27632 dihydrochloride (Tocris Bioscience, cat. 1254). The K12877-001-R-J1-PDC line was cultured in 6I media, which includes all 6C/Colon 1B media plus 10 ng/mL human FGF-10 (PeproTech, cat. 100-26), 1 ng/mL human FGF-2 (PeproTech, cat. 100-18B), 1 µM prostaglandin E2 (Tocris Bioscience, cat. 2296), […] hydrocortisone (Sigma-Aldrich, cat. H4001), and […] bovine insulin (Sigma-Aldrich, cat. I6634). The K86415-001-R-J1-PDC line was cultured in 6D media, which includes all 6C/Colon 1B media components minus the L-WRN conditioned media. The 485176-168-R4-J1-PDC was cultured in PANC media, which includes all 6C/Colon 1B media plus 100 ng/mL human FGF-10 (PeproTech, cat. 100-26), 500 nM SB-431542 (Selleckchem, cat. S1067), and 10 nM gastrin (Tocris Bioscience, cat. 3006). […]

[1] = compound alone, run of 06/10/2024
[2] = compound alone, run of 05/20/2024
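Note: spheroids exposed to agents for one week before readout.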
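Throughout, for viability, T/C: percent viability relative to DMSO vehicle control wells as 100%.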

Row | SMILES | viability, T/C (compound 0.316 µM) | IC50 (curve of compound) | viability, T/C (compound 0.0316 µM) | viability, T/C (compound 0.1 µM) | viability, T/C (compound 1 µM) | viability, T/C (compound 10 µM) | other results
1 | C#Cc1c(F)ccc2cc(O)cc(-c3ncc4c(N5CC6CCC(C5)N6)nc(OCC56CCCN5CC(F)C6)nc4c3F)c12 (centres undefined) | 114% [middle of 8 runs] |  |  |  |  |  | viability, T/C (compound 3.16 µM): 94.4% [middle of 8 runs]; IC50 [1]: > 10000 nM
2 | C=CC(=O)N1CCN(c2nc(OCC3CCCN3C)nc3c(F)c(-c4nc(N)cc(C)c4C(F)(F)F)c(Cl)cc23)C(C)C1 (centres undefined) |  | > 1000 nM |  |  |  |  | IC50 [1]: > 1000 nM
3 | C=CC(=O)Nc1cc(Nc2nccc(-c3cn(C)c4ccccc34)n2)c(OC)cc1N(C)CCN(C)C |  | > 1000 nM | 100% [middle of 4 runs] |  |  |  | 
4 | CC(=O)OC12COC1CC(O)C1(C)C(=O)C(O)C3=C(C)C(OC(=O)C(O)C(NC(=O)OC(C)(C)C)c4ccccc4)CC(O)(C(OC(=O)c4ccccc4)C21)C3(C)C (centres undefined) | 15.4% [middle of 4 runs] | < 31.6 nM | 7.82% [middle of 4 runs] | 14.1% [middle of 4 runs] | 19.7% [middle of 4 runs] | 67% [middle of 4 runs] | viability, T/C (compound 3.16 µM): 38.3% [middle of 4 runs]
5 | CC(C)NCC(C(=O)N1CCN(c2ncnc3c2C(C)CC3O)CC1)c1ccc(Cl)cc1 (centres undefined) | 115% [middle of 4 runs] | 5.43 µM [middle of 4 runs] | 105% [middle of 4 runs] |  | 105% [middle of 4 runs] | 34.2% [middle of 4 runs] | viability, T/C (compound 3.16 µM): 64% [middle of 4 runs]
6 | CC(C)n1nc(-c2ccc3oc(N)nc3c2)c2c(N)ncnc21 |  | 33.4 nM [middle of 4 runs] | 52.2% [middle of 4 runs] | 18.5% [middle of 4 runs] |  |  | 
7 | CC(Nc1ccc2c(c1)OCCn1cc(N3C(=O)OCC3C(F)F)nc1-2)C(N)=O (centres undefined) | 101% (2×) and 121% and 106% | > 10000 nM |  |  |  | 87.9% [middle of 4 runs] | 
8 | CC1(C)CCC(Nc2ncc(C(F)(F)F)c(-c3c[nH]c4c(P(C)(C)=O)c(C#N)ccc34)n2)CN1 (centres undefined) |  |  |  |  |  |  | viability, T/C (compound 0.03 µM): 15.1% [middle of 4 runs]; viability, T/C (compound 0.0949 µM): 10.5% [middle of 4 runs]; viability, T/C (compound 0.3 µM): 8.72% [middle of 4 runs]
9 | CC1(O)CCCC1n1c(=O)c(C(F)F)cc2cnc(NC3CCN(S(C)(=O)=O)CC3)nc21 (centres undefined) | 27.7% [middle of 4 runs] | 145 nM [middle of 4 runs] |  | 56.9% [middle of 4 runs] | 31.8% [middle of 4 runs] | 4.66% [middle of 4 runs] | viability, T/C (compound 3.16 µM): 28.4% [middle of 4 runs]
10 | CCC(CC)c1cc(NC2CCC(N)C2)n2nccc2n1 (centres undefined) | 109% [middle of 4 runs] | 1.86 µM [middle of 4 runs] |  | 92.7% [middle of 4 runs] |  | 2.13% [middle of 4 runs] | viability, T/C (compound 3.16 µM): 2.28% [middle of 4 runs]
11 | CCN1CCN(Cc2ccc(Nc3ncc(F)c(-c4cc(F)c5nc(C)n(C(C)C)c5c4)n3)nc2)CC1 | 94.4% [middle of 4 runs] | > 1000 nM |  |  | 84% [middle of 4 runs] |  | viability, T/C (compound 0.00316 µM): 113% [middle of 4 runs]; viability, T/C (compound 0.01 µM): 100% [middle of 4 runs]
12 | CCc1c2c(nc3ccc(O)cc13)-c1cc3c(c(=O)n1C2)COC(=O)[C@]3(O)CC |  | 1.62 nM [middle of 4 runs] |  |  |  |  | viability, T/C (compound 0.003 µM): 2.73% [middle of 4 runs]; viability, T/C (compound 0.00949 µM): 1.18% [middle of 4 runs]; viability, T/C (compound 0.03 µM): 0.96% [middle of 4 runs]; viability, T/C (compound 0.0949 µM): 0.88% [middle of 4 runs]; viability, T/C (compound 0.3 µM): 0.94% [middle of 4 runs]
13 | CCn1c(-c2cc(N3CCN(C)CC3)cnc2C(C)OC)c2c3cc(ccc31)-c1csc(n1)CC(NC(=O)C1CC1C)C(=O)N1CCCC(N1)C(=O)OCC(C)(C)C2 (centres undefined) |  |  |  |  |  |  | viability, T/C (compound 0.000949 µM): 97.8% [middle of 8 runs]; IC50 [2]: > 300 nM
14 | CCn1c(-c2cccnc2C(C)OC)c2c3cc(ccc31)N1CCOC(CC(NC(=O)C(C(C)C)N(C)C(=O)C3(F)CCN(C(=O)C#CC(C)(C)N(C)C)CC3)C(=O)N3CCCC(N3)C(=O)OCC(C)(C)C2)C1 (centres undefined) |  |  |  |  |  |  | viability, T/C (compound 0.0949 µM): 83.6% [middle of 8 runs]; IC50 [2]: > 300 nM
15 | C[C@@H](NC(=O)c1ncnc(N)c1Cl)c1ncc(C(=O)Nc2cc(C(F)(F)F)c(Cl)cn2)s1 |  | > 10000 nM | 106% [middle of 4 runs] |  |  | 99.5% [middle of 4 runs] | 
16 | Cc1nc(N2CCC3(CC2)COC(C)C3N)c(CO)nc1Sc1ccnc(N)c1Cl (centres undefined) | 108% [middle of 4 runs] | > 10000 nM |  |  | 102% (2×) and 73.6% and 119% | 95.5% [middle of 4 runs] | 
17 | NC1c2ccccc2OC12CCN(c1cnc3c(N4CCCc5ncccc54)n[nH]c3n1)CC2 (centres undefined) | 107% [middle of 4 runs] | > 10000 nM |  | 92.9% [middle of 4 runs] | 116% and 63.2% and 101% (2×) | 99.6% [middle of 4 runs] | 
18 | Nc1ccn(C2OC(CO)C(O)C2(F)F)c(=O)n1 (centres undefined) | 0.85% and 1.16% and 1.48% | 7.29 nM [middle of 4 runs] | 1.12% and 1.45% (2×) and 1.74% | 1.25% [middle of 4 runs] | 1.33% [middle of 4 runs] |  | viability, T/C (compound 0.00316 µM): 100% and 92.9% and 103% (2×); viability, T/C (compound 0.01 µM): 30.1% [middle of 4 runs]
19 | O=C(c1ccc(F)c(F)c1Nc1ccc(I)cc1F)N1CC(O)([C@@H]2CCCCN2)C1 | 68.9% [middle of 4 runs] |  | 90.4% [middle of 4 runs] | 75.8% [middle of 4 runs] |  |  | viability, T/C (compound 0.00316 µM): 90.5% [middle of 4 runs]; viability, T/C (compound 0.01 µM): 97.5% [middle of 4 runs]
